Where two headings read alike, the source gives them in different places.
Assays:
hA1 AR = hA1 AR (Homo sapiens (Human), UniProt P30542); experiment: Radioligand membrane binding assay at hA1 AR ([3H]R-PIA); settings: for Ki: read-out: A1 Ki
Method: (§1) For cell cultures used in radioligand binding assays, after harvest and homogenization, the cells were centrifuged at 200×g for 10 min, and the pellet was re-suspended in 50 mM Tris-HCl buffer (pH 7.5), containing 10 mM MgCl2. The suspension was homogenized with an electric homogenizer for 10 s and was then re-centrifuged at 20,000×g for 20 min at 4° C. The resultant membrane pellets were resuspended in buffer in the presence of 3 units/ml adenosine deaminase, and the suspension was stored at −80° C. until the binding experiments. The protein concentration was measured using the Bradford assay. Radioligand membrane binding assays

hA2AAR = hA2AAR (Homo sapiens (Human), UniProt P29274); experiment: Radioligand membrane binding assay at hA2A AR ([3H]CGS21680); settings: read-out: A2A Ki
Sequence of hA2AAR (P29274 whole entry): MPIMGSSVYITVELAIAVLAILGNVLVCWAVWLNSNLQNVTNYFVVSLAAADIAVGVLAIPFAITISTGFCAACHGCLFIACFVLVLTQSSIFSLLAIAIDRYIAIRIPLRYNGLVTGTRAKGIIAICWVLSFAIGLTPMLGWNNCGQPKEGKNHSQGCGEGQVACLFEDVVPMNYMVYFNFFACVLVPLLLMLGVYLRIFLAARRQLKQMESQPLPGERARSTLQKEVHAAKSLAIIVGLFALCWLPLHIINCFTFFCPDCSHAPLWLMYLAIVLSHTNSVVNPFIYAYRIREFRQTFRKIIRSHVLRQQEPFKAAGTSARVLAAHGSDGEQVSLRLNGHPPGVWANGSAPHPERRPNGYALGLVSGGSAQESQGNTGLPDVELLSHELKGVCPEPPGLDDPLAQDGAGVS
Method: as §1

hA3AR [1] = target: T1, hA3AR (Homo sapiens (Human), UniProt P0DMS8); experiment: Radioligand membrane binding assay at hA3AR ([125I]I-AB-MECA); settings: read-out: A3 Ki
T1 sequence (P0DMS8 whole entry): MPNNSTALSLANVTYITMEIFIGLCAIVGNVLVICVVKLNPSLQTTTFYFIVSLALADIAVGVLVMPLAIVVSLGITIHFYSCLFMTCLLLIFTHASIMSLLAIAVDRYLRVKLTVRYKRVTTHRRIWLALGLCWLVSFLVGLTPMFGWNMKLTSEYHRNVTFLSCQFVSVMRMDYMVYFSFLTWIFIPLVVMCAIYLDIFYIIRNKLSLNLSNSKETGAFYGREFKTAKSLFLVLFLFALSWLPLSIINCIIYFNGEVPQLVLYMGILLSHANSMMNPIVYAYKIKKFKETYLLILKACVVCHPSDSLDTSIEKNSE
Method: as §1

hA3AR [2] = target: T1, hA3AR; experiment: FCM competitive binding in whole CHO cells using MRS5449 as tracer; settings: whole CHO cells expressing hA3AR; 5 nM MRS5449 tracer; 90 min at 37° C.
Method: Total binding was measured in the absence of the competitor.
At the end of each time interval, the medium was removed and cells were washed three times with ice-cold DPBS. After washing, 1 ml 0.2% EDTA solution was added to each well, and cells were incubated at 37° C. for 7 min. Following cell detachment, 1 ml medium was added to each well to neutralize the EDTA. The cell suspensions were transferred to polystyrene round-bottom BD Falcon tubes (BD, Franklin Lakes, N.J.) and centrifuged for 5 min at 23° C. and 400×g. After centrifugation, the supernatant was discarded, and cells were washed with 3 ml PBS and centrifuged again at 23° C. and 400×g for 5 min. After discarding the supernatant, cells were suspended in 0.5 ml PBS and analyzed by FCM.
The intensity of fluorescence emission of each sample was measured by using FCM. […] Samples were maintained in the dark during the analysis to avoid photobleaching. MFIs were obtained in the FL-1 channel in log mode. Ten thousand events were analyzed per sample.
Data analysis was performed with the Prism 5 (GraphPad, San Diego Calif.) software. The mean autofluorescence of CHO cells was measured in the absence of the fluorescent ligand.

[3] = Table 1, inhibition of radioligand binding at 10 μM
[4] = Table 1, HEK293 cells expressing hA2AAR, [3H]CGS21680
[5] = Table 1, CHO cells expressing hA3AR, [125I]I-AB-MECA

Sequence of hA1 AR (P30542 whole entry): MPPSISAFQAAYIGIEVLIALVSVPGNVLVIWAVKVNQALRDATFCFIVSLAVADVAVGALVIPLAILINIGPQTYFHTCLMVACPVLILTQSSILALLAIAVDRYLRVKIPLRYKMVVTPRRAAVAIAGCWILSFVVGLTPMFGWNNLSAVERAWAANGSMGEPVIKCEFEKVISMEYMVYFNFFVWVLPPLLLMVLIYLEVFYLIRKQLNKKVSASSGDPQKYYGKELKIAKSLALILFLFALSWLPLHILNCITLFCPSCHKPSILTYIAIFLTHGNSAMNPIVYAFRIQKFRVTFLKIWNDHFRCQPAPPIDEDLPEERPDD

| Structure (SMILES) | A1 % inhibition (hA1 AR; Table 3) | Ki (hA2AAR; Table 3) [nM] | Ki (hA3AR [1]; Table 3) [nM] | melting point | further results |
| --- | --- | --- | --- | --- | --- |
| Cn1cc2c(nc(NC(=O)Nc3ccc(CC(=O)NCCCN)cc3)n3nc(-c4ccco4)nc23)n1.O=C(O)C(F)(F)F [Compound 17, N-(3-aminopropyl)-2-(4-(3-(2-(furan-2-yl)-8-methyl-8H-pyrazolo[4,3-e][1,2,4]triazolo[1,5-c]pyrimidin-5-yl)ureido)phenyl)acetamide trifluoroacetate salt] | 9% ± 3% | 175 ± 27 | 8.06 ± 2.47 | 142 to 150 °C |  |
| OC[C@H]1O[C@@H](n2cnc3c(NC4CCCC4)ncnc32)[C@H](O)[C@@H]1O [CPA, (2R,3R,4S,5R)-2-[6-(cyclopentylamino)purin-9-yl]-5(hydroxymethyl)oxolane-3,4-diol] |  |  |  |  | Ki (hA3AR [2]): 1490 ± 230 nM |
| Cn1cc2c(nc(NC(=O)Nc3ccc(CC(=O)NCCCCN)cc3)n3nc(-c4ccco4)nc23)n1.O=C(O)C(F)(F)F [Compound 18, N-(4-Aminobutyl)-2-(4-(3-(2-(furan-2-yl)-8-methyl-8H-pyrazolo[4,3-e][1,2,4]triazolo[1,5-c]pyrimidin-5-yl)ureido)phenyl)acetamide trifluoroacetate salt] | 4% ± 1% | 172 ± 33 | 6 ± 1.29 | 167 to 173 °C |  |
| Cn1cc2c(nc(NC(=O)Nc3ccc(CC(=O)NCCOCCOCCNC(=O)OC(C)(C)C)cc3)n3nc(-c4ccco4)nc23)n1 [Compound 15, tert-Butyl (2-(2-(2-(2-(4-(3-(2-(furan-2-yl)-8-methyl-8H-pyrazolo[4,3-e][1,2,4]triazolo[1,5-c]pyrimidin-5-yl)ureido)phenyl)acetamido)-ethoxy)ethoxy)ethyl)carbamate] | 7% ± 5% | 456 ± 96 | 74.8 ± 10.1 | 157 to 165 °C |  |
| C#CCCCC(=O)Nc1nc2nn(C)cc2c2nc(-c3ccco3)nn12 [Compound 37, N-(2-(furan-2-yl)-8-methyl-8H-pyrazolo[4,3-e][1,2,4]triazolo[1,5-c]pyrimidin-5-yl)hex-5-ynamide] |  | 199 | 4.11 ± 0.93 | 210 to 216 °C (dec.) |  |
| Nc1nc(NCCc2ccc(O)cc2)nc2nc(-c3ccco3)nn12 [ZM241385, 4-(2-[7-amino-2-(2-furyl)[1,2,4]triazolo[2,3-a][1,3,5]triazin-5-ylamino]ethyl)phenol] |  |  |  |  | Ki (hA3AR [2]): 300 ± 27 nM |
| Nc1nc2ccc(Cl)cc2c2nc(-c3ccco3)nn12 [Compound 7] |  |  |  |  | Ki (hA3AR [2]): 16.1 ± 6.2 nM |
| Cn1cc2c(nc(NCCCNC(=S)Nc3ccc(-c4c5ccc(=O)cc-5oc5cc(O)ccc45)c(C(=O)O)c3)n3nc(-c4ccco4)nc23)n1 [Compound 2] |  |  |  |  | A1 % inhibition (hA1 AR; [3]): (5 ± 2%); Ki (hA2AAR; [4]): 2480 ± 420 nM; Ki (hA3AR [1]; [5]): 2390 ± 660 nM |
| Cn1cc2c(nc(NC(=O)Nc3ccc(CC(=O)NCCCCCNC(=S)Nc4ccc5c(c4)C(=O)OC54c5ccc(O)cc5Oc5cc(O)ccc54)cc3)n3nc(-c4ccco4)nc23)n1 [Compound 24, N-(5-(3-(Fluorescein-5-yl)thioureido)pentyl)-2-(4-(3-(2-(furan-2-yl)-8-methyl-8H-pyrazolo[4,3-e][1,2,4]triazolo[1,5-c]pyrimidin-5-yl)ureido)phenyl)acetamide] | 21% ± 5% | 106 ± 14 | 96.7 ± 26.9 |  |  |
| Cn1cc2c(nc(NNC(=S)Nc3ccc(-c4c5ccc(=O)cc-5oc5cc(O)ccc45)c(C(=O)O)c3)n3nc(-c4ccco4)nc23)n1 [Compound 1] |  |  |  |  | Ki (hA1 AR; Table 1, CHO cells expressing hA1AR, agonist radioligand [3H]R-PIA): 9500 nM; Ki (hA2AAR; [4]): 920 ± 110 nM; Ki (hA3AR [1]; [5]): 780 nM |
| Cn1cc2c(nc(NC(=O)Nc3ccc(CC(=O)NCCCOCCOCCOCCCN)cc3)n3nc(-c4ccco4)nc23)n1.O=C(O)C(F)(F)F [Compound 21, N-(3-(2-(2-(3-aminopropoxy)ethoxy)ethoxy)propyl)-2-(4-(3-(2-(furan-2-yl)-8-methyl-8H-pyrazolo[4,3-e][1,2,4]triazolo[1,5-c]pyrimidin-5-yl)ureido)phenyl)acetamide trifluoroacetate salt] | 1% ± 1% | 328 ± 77 | 10.3 ± 0.4 | 133 to 140 °C |  |
| C#CCCCCCC(=O)Nc1nc2nn(C)cc2c2nc(-c3ccco3)nn12 [Compound 39, N-(2-(furan-2-yl)-8-methyl-8H-pyrazolo[4,3-e][1,2,4]triazolo[1,5-c]pyrimidin-5-yl)oct-7-ynamide] | 62% ± 3% | 482 ± 141 | 12.8 | 204 to 208 °C (dec.) |  |
| C#CCCCCC(=O)Nc1nc2nn(C)cc2c2nc(-c3ccco3)nn12 [Compound 38, N-(2-(furan-2-yl)-8-methyl-8H-pyrazolo[4,3-e][1,2,4]triazolo[1,5-c]pyrimidin-5-yl)hept-6-ynamide] |  | 151 ± 33 | 7.26 ± 1.04 | 208 to 215 °C (dec.) | Ki (hA1 AR; Table 3): 891 ± 265 nM |
| Cn1cc2c(nc(NC(=O)Nc3ccc(CC(=O)NCCCNC(=O)OC(C)(C)C)cc3)n3nc(-c4ccco4)nc23)n1 [Compound 12, tert-Butyl (3-(2-(4-(3-(2-(furan-2-yl)-8-methyl-8H-pyrazolo[4,3-e][1,2,4]triazolo[1,5-c]pyrimidin-5-yl)ureido)phenyl)acetamido)propyl)carbamate] | 15% ± 5% | 150 ± 11 | 2.75 ± 0.2 | 198 to 205 °C |  |
| Cn1cc2c(nc(NCCCCCNC(=S)Nc3ccc(-c4c5ccc(=O)cc-5oc5cc(O)ccc45)c(C(=O)O)c3)n3nc(-c4ccco4)nc23)n1 [Compound 4] |  |  |  |  | A1 % inhibition (hA1 AR; [3]): (9 ± 5%); Ki (hA2AAR; [4]): 1750 ± 470 nM; Ki (hA3AR [1]; [5]): 5660 ± 610 nM |
| Cn1cc2c(nc(NCCCOCCOOCCCCCNC(=S)Nc3ccc(-c4c5ccc(=O)cc-5oc5cc(O)ccc45)c(C(=O)O)c3)n3nc(-c4ccco4)nc23)n1 [Compound 6] |  |  |  |  | A1 % inhibition (hA1 AR; [3]): (0%); Ki (hA2AAR; [4]): 6010 ± 420 nM; Ki (hA3AR [1]; [5]): 7090 ± 370 nM |
| Cn1cc2c(nc(NC(=O)Nc3ccc(CC(=O)NCCCCNC(=O)OC(C)(C)C)cc3)n3nc(-c4ccco4)nc23)n1 [Compound 13, tert-Butyl (4-(2-(4-(3-(2-(furan-2-yl)-8-methyl-8H-pyrazolo[4,3-e][1,2,4]triazolo[1,5-c]pyrimidin-5-yl)ureido)phenyl)acetamido)butyl)carbamate] | 2% ± 2% | 304 ± 20 | 3.46 ± 0.33 | 186 to 193 °C |  |
| Cn1cc2c(nc(NC(=O)Nc3ccc(CC(=O)NCCCOCCOCCOCCCNC(=O)OC(C)(C)C)cc3)n3nc(-c4ccco4)nc23)n1 [Compound 16, tert-Butyl (1-(4-(3-(2-(furan-2-yl)-8-methyl-8H-pyrazolo[4,3-e][1,2,4]triazolo[1,5-c]pyrimidin-5-yl)ureido)phenyl)-2-oxo-7,10,13-trioxa-3-azahexadecan-16-yl)carbamate] | 11% ± 5% | 327 ± 32 | 82.4 ± 20.1 | 151 to 158 °C |  |
| Cn1cc2c(nc(NC(=O)Nc3ccc(CC(=O)NCCCCCN)cc3)n3nc(-c4ccco4)nc23)n1.O=C(O)C(F)(F)F [Compound 19, N-(5-aminopentyl)-2-(4-(3-(2-(furan-2-yl)-8-methyl-8H-pyrazolo[4,3-e][1,2,4]triazolo[1,5-c]pyrimidin-5-yl)ureido)phenyl)acetamide trifluoroacetate salt] | 6% ± 4% | 203 ± 52 | 2.66 ± 0.48 | 170 to 178 °C |  |
| Cn1cc2c(nc(NC(=O)Nc3ccc(CC(=O)NCCOCCOCCN)cc3)n3nc(-c4ccco4)nc23)n1.O=C(O)C(F)(F)F [Compound 20, 2-(2-(2-(2-(4-(3-(2-(furan-2-yl)-8-methyl-8H-pyrazolo[4,3-e][1,2,4]triazolo[1,5-c]pyrimidin-5-yl)ureido)phenyl)acetamido)ethoxy)ethoxy)ethanamine trifluoroacetate salt] | 17% ± 3% | 267 ± 61 | 19.2 ± 3.3 | 152 to 160 °C |  |
| C#CCCC(=O)Nc1nc2nn(C)cc2c2nc(-c3ccco3)nn12 [Compound 36, N-(2-(furan-2-yl)-8-methyl-8H-pyrazolo[4,3-e][1,2,4]triazolo[1,5-e]pyrimidin-5-yl)pent-4-ynamide] | 55% ± 4% | 133 ± 37 | 11 ± 0.6 |  |  |
